These results are taken from patent US20040171062A1, “Methods for the design of molecular scaffolds and ligands” (Plexxikon, Inc., priority 2002, published 2004).

Format in all cases: biochemical
The target of assay [1] is T1, Pyk2 kinase domain residues 419 to 691 (Homo sapiens, UniProt Q14289).
T1 construct: PYK2 kinase domain I420-M691; hexa-histidine (thrombin-cleavable, pET15S; leaves GSHM before I420) (N, cleaved yes); made in house; host or cells: E. coli BL21 (DE3) pLysS
The assay is described as follows: Pyk2 kinase domain AlphaScreen activity and inhibition by ATP analogs. To be noted: Pyk2 at 8 ng/well, ATP at 10 uM; for IC50: fit y = ((Vmax*x^n)/(K^n + x^n)) + Y2; for effect on PYK2: in the concentration tested. On the procedure: Inhibition by ATP analogs was tested with Pyk2 at 8 ng/well and ATP at 10 uM.
In general terms: Alpha assays give light when donor and acceptor beads are brought close together.

Assay [2] addresses T1, Pyk2 kinase domain residues 419 to 691. The assay is described as above.
The target of another assay is T2, PIM-1 (Homo sapiens, UniProt P11309).
T2 construct: expressing PIM-1 kinase domain (29-313) was suspended; made in house; host or cells: E. coli BL21(DE3)pLysS
Nature of the assay: PIM-1 kinase activity assay (MBP substrate, 33P-ATP FlashPlate).

A further assay deals with T3, Pyk2 (Homo sapiens, UniProt Q14289).
T3 construct: the Pyk2 was the kinase domain-(His)6 fusion; (His)6 (C); made in house; host or cells: E. coli BL21
Nature of the assay: Pyk-2 inhibitory activity (kinase ELISA, poly(Glu:Tyr)). Background: In an ELISA, binding on a coated surface is turned into a signal by an enzyme label.

T1 sequence (Q14289 420-691): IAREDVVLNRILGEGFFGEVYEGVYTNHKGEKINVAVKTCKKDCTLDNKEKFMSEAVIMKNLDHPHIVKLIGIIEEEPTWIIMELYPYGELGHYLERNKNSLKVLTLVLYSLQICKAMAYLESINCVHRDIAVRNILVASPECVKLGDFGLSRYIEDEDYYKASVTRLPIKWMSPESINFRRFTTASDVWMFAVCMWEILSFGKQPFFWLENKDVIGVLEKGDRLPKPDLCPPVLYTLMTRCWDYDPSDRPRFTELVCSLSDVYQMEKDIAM
T2 sequence (P11309 29-313): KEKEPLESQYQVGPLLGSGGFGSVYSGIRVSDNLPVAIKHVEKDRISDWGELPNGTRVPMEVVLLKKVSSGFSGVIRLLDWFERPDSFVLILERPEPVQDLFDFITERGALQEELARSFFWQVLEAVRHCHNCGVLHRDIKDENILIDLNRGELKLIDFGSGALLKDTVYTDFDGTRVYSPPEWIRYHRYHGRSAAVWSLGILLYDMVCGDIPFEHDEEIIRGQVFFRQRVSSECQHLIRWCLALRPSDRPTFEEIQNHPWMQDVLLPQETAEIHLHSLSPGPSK
T3 sequence (Q14289 425-683 limits assumed): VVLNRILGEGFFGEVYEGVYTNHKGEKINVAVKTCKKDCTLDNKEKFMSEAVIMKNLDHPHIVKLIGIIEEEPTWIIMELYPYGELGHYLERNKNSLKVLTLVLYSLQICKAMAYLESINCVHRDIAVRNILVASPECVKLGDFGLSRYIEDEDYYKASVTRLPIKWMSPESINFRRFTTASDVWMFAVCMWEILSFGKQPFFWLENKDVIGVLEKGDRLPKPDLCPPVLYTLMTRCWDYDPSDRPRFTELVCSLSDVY
Procedure for PIM-1: Inhibitory or exhitory activity of compounds binding to PIM-1 was determined using a kinase assay.
An assay for kinase activity that can be used for PIM kinases, e.g., PIM-1, can be performed according to the following procedure using purified kinase using myelin basic protein (MBP) as substrate.
Coat scintillation plate suitable for radioactivity counting (e.g., FlashPlate from Perkin-Elmer, such as the SMP200(basic)) with kinase+MBP mix (final 100 ng+300 ng/well) at 90-μL/well in kinase buffer. Add compounds at 1 μL/well from 10 mM stock in DMSO. Positive control wells are added with 1 μL of DMSO. Negative control wells are added with 2 μL of EDTA stock solution. ATP solution (10 μL) is added to each well to provide a final concentration of cold ATP is 2 μM, and 50 nCi ATPγ[^33P]. The plate is shaken briefly, and a count is taken to initiate count (IC) using an apparatus adapted for counting with the plate selected, e.g., Perkin-Elmer Trilux. Store the plate at 37° C. for 4 hrs, then count again to provide final count (FC).
Net 33P incorporation (NI) is calculated as: NI=FC−IC.
The effect of the present of a test compound can then be calculated as the percent of the positive control as: % PC=[(NI−NC)/(PC−NC)]×100, where NC is the net incorporation for the negative control, and PC is the net incorporation for the positive control. […]

For orientation: IC50 means the concentration that inhibits the measured activity by half. As for `Nc1ncnc2c1ncn2[C@@H]1O[C@H](COP(=O)(O)OP(=O)(O)O)[C@@H](O)[C@H]1O` [ADT], in assay [1], the “affinity with Pyk2” value amounted to 14 µM and the IC50 came to 14.9 µM. With `Nc1ncnc2c1ncn2[C@@H]1O[C@H](COP(=O)(O)OP(=O)(O)CP(=O)(O)O)[C@@H](O)[C@H]1O` [AMPPCP], in assay [1], the IC50 worked out at 7690 µM and the “effect on PYK2” value is listed as “little effect”. On to `Nc1ncnc2c1ncn2C1OC(COP(=O)(O)OP(=O)(O)NP(=O)(O)O)C(O)C1O` (centres unmarked) [AMPPNP, 5′-adenylylimidodiphosphate], for which the half-inhibitory concentration (IC50) in assay [1] is 18.1 µM. With `Nc1ncnc2c1ncn2[C@@H]1O[C@H](COP(=O)(O)O)[C@@H](O)[C@H]1O` [AMP], the 50% inhibitory concentration (IC50) in assay [1] worked out at 80.2 µM. As for `Nc1ncnc2c1ncn2[C@@H]1O[C@H](COP(=O)(O)OP(=O)(O)OP(O)(O)=S)[C@@H](O)[C@H]1O` [ATP-g-S], in assay [1], the “affinity with Pyk2” value was found to be 14 µM and the concentration for half-maximal inhibition (IC50) was found to be 13.6 µM. As a reminder, the Kd is the free concentration of one partner at which half of the binding sites on the other are occupied at equilibrium, for simple one-to-one binding. A higher Kd goes with weaker binding. Regarding `Nc1ncnc2c1ncn2[C@@H]1O[C@H](COP(=O)(O)OP(=O)(O)OP(=O)(O)O)[C@@H](O)[C@H]1O` [ATP], the “K (Pyk2 activity)” value in assay [2] (Pyk2 8 ng/well, 384-well plate, fit y = (Vmax*x)/(K + x)) was found to be 7.37 µM. In addition, in assay [2] (Pyk2 at 8 ng/well in 384-well plate, AlphaScreen), binding was put at a Kd of 7.34 µM. For the compound `Nc1ncnc2c1ncn2[C@@H]1O[C@H](CO)[C@@H](O)[C@H]1O` [Adenosine], the “effect on PYK2” value in assay [1] was “little effect”. One may read the inhibition as the share of the control response that was lost under treatment. Read a high inhibition as a response far below the control. On PIM-1 (at 200 μM concentration), `c1cnc2[nH]ccc2c1` [Formula III, R1=R2=R3=R4=R5=H] had an inhibition at 200 µM of 8%. The IC50 is above 200 µM at PIM-1 (read-out: IC50, inhibitory activity against PIM-1) and above 200 µM against Pyk2.
